Results from patent US20250215039A1, “NUCLEOSIDES FOR TREATING CANCER” (PRIMEFOUR THERAPEUTICS, INC., priority 2022, published 2025).
Where two headings read alike, the source gives them in different places.

System: cancer cell lines
Experiment: Cancer cell proliferation activity (CellTiterGlo, 72 h)
Type: cell-based
Details: 72 h, 72 h, read-out: IC50
How it was run: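 Cells seeded overnight at 37 °C, then dosed with compound at 0.1% final DMSO and incubated 72 h at 37 °C (5% or 10% CO2 by medium).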

CC[C@]1(CO)O[C@@H](n2cnc3c(N)nc(F)nc32)[C@H](O)[C@@H]1O [Cpd. No. 173, (2R,3S,4R,5R)-5-(6-amino-2-fluoro-9H-purin-9-yl)-2-ethyl-2-(hydroxymethyl)tetrahydrofuran-3,4-diol] gave an IC50 (5637 cell line (bladder)) of 220 nM, an IC50 (AS49 cell line (lung)) of 240 nM and an IC50 (CLS439 cell line (bladder)) of 610 nM. It also gave an IC50 (HS729 cell line (muscle)) of 210 nM, an IC50 (JAR cell line (placenta)) of 50 nM and an IC50 (Homo sapiens, 22Rv1, 72 h, 22RV1 cell line (prostate)) of 220 nM. It also gave an IC50 (Homo sapiens, 786-0, 72 h, 786O cell line (kidney)) of 110 nM, an IC50 (Homo sapiens, A204, 72 h, A204 cell line (muscle)) of 70 nM and an IC50 (Homo sapiens, A673, 72 h, A673 cell line (bone)) of 570 nM. The IC50 (Homo sapiens, A2780, 72 h, A2780 cell line (ovary)) was 200 nM, the IC50 (Homo sapiens, A-375, 72 h, A375 cell line (skin)) was 140 nM and the IC50 (Homo sapiens, A-431, 72 h, A431 cell line (skin)) was 70 nM. For the same compound, the IC50 (Homo sapiens, ACHN, ACHN cell line (kidney)) was 280 nM, the IC50 (Homo sapiens, ASPC1, 72 h, ASPC1 cell line (pancreas)) was 50 nM and the IC50 (Homo sapiens, BT-20, 72 h, BT20 cell line (breast)) was 100 nM. The IC50 (Homo sapiens, BXPC-3, 72 h, BXPC3 cell line (pancreas)) was 210 nM, the IC50 (Homo sapiens, C-33-A, C33A cell line (cervical)) was 190 nM and the IC50 (Homo sapiens, CAKI-1, 72 h, CAKI1 cell line (kidney)) was 10 nM. The IC50 (Homo sapiens, COLO 205, 72 h, COLO205 cell line (colon)) was 260 nM, the IC50 (Homo sapiens, COLO-678, 72 h, COLO678 cell line (colon)) was 390 nM and the IC50 (Homo sapiens, Ca-Ski, CASKI cell line (cervical)) was 60 nM. It also gave an IC50 (Homo sapiens, Caco-2, 72 h, CACO2 cell line (colon)) of 280 nM, an IC50 (Homo sapiens, Calu-6, 72 h, CALU6 cell line (lung)) of 60 nM and an IC50 (Homo sapiens, DLD-1, 72 h, DLD1 cell line (colon)) of 260 nM. It also gave an IC50 (Homo sapiens, DU-145, 72 h, DU145 cell line (prostate)) of 20 nM, an IC50 (Homo sapiens, EFO-21, 72 h, EFO21 cell line (ovary)) of 130 nM and an IC50 (Homo sapiens, EJ-28, 72 h, EJ28 cell line (bladder)) of 90 nM. For the same compound, the IC50 (Homo sapiens, Granta-519, 72 h, GRANTA-519 cell line (hematological)) was 560 nM, the IC50 (Homo sapiens, HCT-15, 72 h, HCT15 cell line (colon)) was 300 nM and the IC50 (Homo sapiens, HCT-116, 72 h, HCT116 cell line (colon)) was 230 nM. The IC50 (Homo sapiens, HEK293, 72 h, HEK293 cell line (kidney)) was 140 nM, the IC50 (Homo sapiens, HL-60, 72 h, HL-60 cell line (hematological)) was 70 nM and the IC50 (Homo sapiens, HT-29, 72 h, HT29 cell line (colon)) was 160 nM. For the same compound, the IC50 (Homo sapiens, HT-1080, 72 h, HT1080 cell line (connective tissue)) was 720 nM, the IC50 (Homo sapiens, HeLa, HELA cell line (cervical)) was 110 nM and the IC50 (Homo sapiens, HepG2, 72 h, HEPG2 cell line (liver)) was 110 nM. For the same compound, the IC50 (Homo sapiens, Hs-578T, HS578T cell line, breast) was 90 nM, the IC50 (Homo sapiens, IGROV-1, 72 h, IGROV1 cell line (ovary)) was 50 nM and the IC50 (Homo sapiens, IMR-90, 72 h, IMR90 cell line, lung) was 150 nM. It also gave an IC50 (Homo sapiens, J82, 72 h, J82 cell line (bladder)) of 150 nM, an IC50 (Homo sapiens, JEG-3, 72 h, JEG3 cell line (placenta)) of 40 nM and an IC50 (Homo sapiens, JIMT-1, 72 h, JIMT1 cell line (breast)) of 20 nM. It also gave an IC50 (Homo sapiens, K562, 72 h, K-562 cell line (hematological)) of 500 nM, an IC50 (Homo sapiens, Kasumi 1, 72 h, KASUMI-1 cell line (hematological)) of 20 nM and an IC50 (Homo sapiens, L-363, 72 h, L-363 cell line (hematological)) of 40 nM. The IC50 (Homo sapiens, LoVo, LOVO cell line (colon)) was 40 nM, the IC50 (Homo sapiens, MCF7, 72 h, MCF7 cell line (breast)) was 2400 nM and the IC50 (Homo sapiens, MDA-MB-231, 72 h, MDAMB231 cell line (breast)) was 570 nM. It also gave an IC50 (Homo sapiens, MDA-MB-435, 72 h, MDAMB435 cell line (skin)) of 250 nM, an IC50 (Homo sapiens, MDA-MB-436, 72 h, MDAMB436 cell line (breast)) of 70 nM and an IC50 (Homo sapiens, MDA-MB-468, 72 h, MDAMB468 cell line (breast)) of 100 nM. The IC50 (Homo sapiens, MG-63, 72 h, MG63 cell line (bone)) was 2360 nM, the IC50 (Homo sapiens, MHH-ES-1, 72 h, MHHES1 cell line (bone)) was 120 nM and the IC50 (Homo sapiens, MIA PaCa-2, 72 h, MIAPACA2 cell line (pancreas)) was 2770 nM. It also gave an IC50 (Homo sapiens, MINO, MINO cell line (hematological)) of 30 nM, an IC50 (Homo sapiens, MV4-11, 72 h, MV4-11 cell line (hematological)) of 30 nM and an IC50 (Homo sapiens, NCI-H23, 72 h, NCI-H23 cell line (lung)) of 70 nM. For the same compound, the IC50 (Homo sapiens, NCI-H82, 72 h, NCIH82 cell line (lung)) was 70 nM, the IC50 (Homo sapiens, NCI-H292, 72 h, NCIH292 cell line (lung)) was 470 nM and the IC50 (Homo sapiens, NCI-H460, 72 h, NCIH460 cell line (lung)) was 150 nM. For the same compound, the IC50 (Homo sapiens, OVCAR-3, 72 h, OVCAR3 cell line (ovary)) was 80 nM, the IC50 (Homo sapiens, OVCAR-4, 72 h, OVCAR4 cell line (ovary)) was 130 nM and the IC50 (Homo sapiens, PANC-1, 72 h, PANC1 cell line (pancreas)) was 2820 nM. The IC50 (Homo sapiens, PC-3, 72 h, PC3 cell line (prostate)) was 130 nM, the IC50 (Homo sapiens, PLC-PRF-5, 72 h, PLCPRF5 cell line (liver)) was 630 nM and the IC50 (Homo sapiens, Panc1005, 72 h, PANC1005 cell line (pancreas)) was 130 nM. It also gave an IC50 (Homo sapiens, RD, RD cell line (muscle)) of 190 nM, an IC50 (Homo sapiens, Ramos, RAMOS cell line (hematological)) of 80 nM and an IC50 (Homo sapiens, SAOS-2, 72 h, SAOS2 cell line (bone)) of 100 nM. The IC50 (Homo sapiens, SF-268, 72 h, SF268 cell line (brain)) was 670 nM, the IC50 (Homo sapiens, SF-295, 72 h, SF295 cell line (brain)) was 440 nM and the IC50 (Homo sapiens, SK-BR-3, 72 h, SKBR3 cell line (breast)) was 10 nM. It also gave an IC50 (Homo sapiens, SK-HEP1, 72 h, SKHEP1 cell line (liver)) of 190 nM, an IC50 (Homo sapiens, SK-LMS-1, 72 h, SKLMS1 cell line (uterus)) of 90 nM and an IC50 (Homo sapiens, SK-MEL-5, 72 h, SKMEL5 cell line, skin) of 420 nM. For the same compound, the IC50 (Homo sapiens, SK-MEL-28, 72 h, SKMEL28 cell line (skin)) was 150 nM, the IC50 (Homo sapiens, SK-N-AS, SKNAS cell line (brain)) was 160 nM and the IC50 (Homo sapiens, SK-N-SH, SKNSH cell line (brain)) was 140 nM. The IC50 (Homo sapiens, SK-OV-3, 72 h, SKOV3 cell line (ovary)) was 100 nM, the IC50 (Homo sapiens, SNB-75, 72 h, SNB75 cell line (brain)) was 240 nM and the IC50 (Homo sapiens, SU-DHL10, 72 h, SU-DHL-10 cell line (hematological)) was 200 nM. For the same compound, the IC50 (Homo sapiens, SU-DHL-6, 72 h, SU-DHL-6 cell line (hematological)) was 50 nM, the IC50 (Homo sapiens, SW-620, 72 h, SW620 cell line (colon)) was 90 nM and the IC50 (Homo sapiens, T-24, 72 h, T24 cell line (bladder)) was 140 nM. It also gave an IC50 (Homo sapiens, TE-671, 72 h, TE671 cell line (muscle)) of 620 nM, an IC50 (Homo sapiens, THP-1, 72 h, THP-1 cell line (hematological)) of 980 nM and an IC50 (Homo sapiens, U2OS, U2OS cell line (bone)) of 80 nM. It also gave an IC50 (Homo sapiens, U-87 MG, U87MG cell line (brain)) of 380 nM, an IC50 (Homo sapiens, UMUC3, 72 h, UMUC3 cell line (bladder)) of 460 nM and an IC50 (Homo sapiens, UO-31, 72 h, UO31 cell line (kidney)) of 50 nM. It also gave an IC50 (Homo sapiens, WSU-NHL, WSU-NHL cell line (hematological)) of 40 nM, an IC50 (MT-3, 72 h, MT3 cell line (breast)) of 100 nM and an IC50 (NCI-H358M, NCIH358M cell line (lung)) of 150 nM. It also gave an IC50 (PBMC, PBMC (hematological)) of over 50000 nM and an IC50 (RD-ES, RDES cell line (bone)) of 60 nM.
